Assay results reported in patent publication US7422854B1, “Cholesterol reduction signature” (priority 2002, dated 2008).

Assays:
male Sprague-Dawley rats = test: Cholesterol Lowering Index: total blood cholesterol (clinical chemistry) in treated versus vehicle-treated rats; assay type: in vivo, rat; conditions: for Chol index (fold reduction) / Cholesterol Index (fold reduction): male rats; for Chol index (fold reduction): vs vehicle; for reduction in cholesterol: extremes of the twenty treatments of table 1, treated versus untreated rats; for Cholesterol Index (fold reduction): Table 4
From the text: Compound dosing was based on the acute dose LD50s recorded in published reference or literature sources. […] The MTD (maximum tolerated dose) was then selected as the dose at which the animals […] 5-10% body weight during the 5-day range finding study. […] In addition, the clinical observations must show no or mild clinical signs during the whole of the range-finding study. At the next highest dose, signs and symptoms of adverse effects and exceeding those of the MTD should be seen to occur. Should these criteria not be met, the range-finding study is repeated using a modified dose range.
(§1) After determination of the MTD and FED for a compound, each compound was dissolved in a vehicle for administration on day 1 of the study (additional daily doses were stored as frozen aliquots from this initial formulation). Each compound was administered to three individual male Sprague-Dawley rats for each of the two doses (MTD and FED) for one of four different times (0.25 day, 1 day, 3 days, and 5 days), yielding a total of up to 24 animals per compound study. Vehicle choice was based on solubility of the compound, effect of food on adsorption, and the vehicles used in the literature reports examined during the FED selection investigations, described above. Generally, the route and vehicle in which the FED was defined are used. When there was a choice of routes and vehicles, oral routes were chosen over injection routes. Many compounds, especially oncolytics, are only administerable intravenously. In such cases, the compound was administered as an intravenous formulation into the tail vein. Orally administered compounds were given dissolved in either water, 1% carboxymethycellulose (CMC) or corn oil. Intravenously and intraperitoneally administered compounds were given in 0.9% saline. Subcutaneously administered compounds were given in corn oil. Animal body weights were determined at 1 day and, where appropriate, at 4 days, before necropsy, and clinical observations were made on a daily basis. Control animals were dosed with vehicle only. Three male animals were used for each dose and time combination used for the compound treatment.
(§2) Tissue harvest and handling: After the allocated treatment time, the tissues from the animals were harvested. […] All the tissues collected were divided to provide samples for histopathological analyses, and the remainder of each tissue was then snap-frozen. […] The following blood constituents were measured: Blood Urea Nitrogen (BUN), Creatinine (CRE), Glucose (GLU), Alanine Transaminase (ALT), Aspartate Aminotrans-ferase (AST), Alkaline Phosphatase (ALP), Total Bilirubin (TBI), Sodium (SOD), Potassium (POT), Chloride (CHL), Phosphorus (PHO), Total Protein (TPR), Albumin (ALB), Cholesterol (CHO), Creatine Phosphokinase (CPK), Lactate Dehydrogenase (LDH), Carbon Dioxide (CO2), Uric Acid (UA), and Lipase. […] The parameters were measured using a Baker 9000 blood cell analysis instrument according to the manufactures instructions. The following blood constituents were measured: Leukocyte count (WBC), Differential Leukocyte counts, Erythrocyte count (RBC), Hemoglobin concentration (HGB), Hematocrit (HCT), Mean Corpuscular Volume (MCV), Mean Corpuscular Hemoglobin (MCH), Mean Corpuscular Hemoglobin Concentration (MCC), Thrombocyte Count (PLC). Histopathology: Histopathological analyses of hematoxylin and eosin-stained tissue sections were performed and peer-reviewed by board-certified (Diplomate, American College of Veterinary Pathologists) veterinary pathologists. Preparation of Enriched mRNA: Punch Biopsies were Taken from the Frozen Tissues and were completely homogenized before being processed using the MagNA Pure robot. (Roche Diagnostics Corp., Indianapolis, Ind.) in combination with the MagNA Pure LC RNA Isolation kit II (Roche Diagnostics Corp).

livers of rats = test: Signature Projection Score (SPS): match of liver gene expression to the Cholesterol Reduction Signature; assay type: in vivo; conditions: rat liver, maximum of training treatments = 100
Method: as §1
as §2, with “Corp). The amount of lysis buffer was adjusted to allow 1 ml per 50 mg for liver tissue, or 1 ml per 80 mg for all other tissues. After complete homogenization and before loading of the samples into the 32-well MagNA Pure plate, the samples were syringed 5-6 times using a 20-gauge 3-ml syringe to ensure a smooth solution for robotic processing. Tissue sample processing was performed in duplicate wells (loading 150 μl of homogenized sample and 150 μl of additional lysis buffere to each well) of the MagNA Pure LC, which is programmed to extract mRNA using oligo-dT selection technology into a final elution volume of 100 μl. Poly A(+) RNA sample concentration was performed using a standard ethanol precipitation protocol in the presence of glycogen (50 μg/ml).” for “Corp).”

SMILES: CC[C@H](C)C(=O)O[C@H]1C[C@@H](C)C=C2C=C[C@H](C)[C@H](CC[C@@H]3C[C@@H](O)CC(=O)O3)[C@H]21 (relative stereo) [LOVASTATIN, (1S-(1α(R*),3α,7β,8β(2S*,4S*)-8αβ)-2-methylbutanoic acid 1,2,3,7,8,8a-hexahydro-3,7-dimethyl-8-(2-(tetrahydro-4-hydroxy-6-oxo-2H-pyran-2-yl)ethyl)-1-naphthalenyl ester]
- Chol index (fold reduction) (male Sprague-Dawley rats; dose 450, time 5 days): 2.39 fold reduction
- reduction in cholesterol (male Sprague-Dawley rats): 2 fold

SMILES: C[C@]12CC[C@@H]3c4ccc(OC(=O)c5ccccc5)cc4CC[C@H]3[C@@H]1CC[C@@H]2O [BETA-ESTRADIOL 3-BENZOATE]
- Cholesterol Index (fold reduction) (male Sprague-Dawley rats; dose 2, time point 3 days): 2.0 fold reduction
- SPS (livers of rats; dose 2 (mg/ml), time point 3 days): 46.4

SMILES: C[C@]12CC[C@@H]3c4ccc(O)cc4CC[C@H]3[C@@H]1CC[C@@H]2O [BETA-ESTRADIOL, (17β)-estra-1,3,5(10)-triene-3,17-diol]
- Cholesterol Index (fold reduction) (male Sprague-Dawley rats; dose 150, time point 3 days): 3.1 fold reduction
- Cholesterol Index (fold reduction) (male Sprague-Dawley rats; dose 150, time point 5 days): 4.7 fold reduction
- Chol index (fold reduction) (male Sprague-Dawley rats; dose 150, time 3 days): 3.21 fold reduction
- Chol index (fold reduction) (male Sprague-Dawley rats; dose 150, time 5 days): 4.94 fold reduction
- SPS (livers of rats; dose 150 (mg/ml), time point 1 day): 53
- SPS (livers of rats; dose 150 (mg/ml), time point 3 days): 63.4
- SPS (livers of rats; dose 150 (mg/ml), time point 5 days): 63.7

SMILES: CCOC(=O)C(C)(C)Oc1ccc(Cl)cc1 [CLOFIBRATE, 2-(4-chlorophenoxy)-2-methylpropanoic acid ethyl ester]
- Chol index (fold reduction) (male Sprague-Dawley rats; dose 500, time 3 days): 2.43 fold reduction

SMILES: C[C@@H]1C[C@H]2[C@@H]3CCC4=CC(=O)C=C[C@]4(C)[C@@]3(F)[C@@H](O)C[C@]2(C)[C@@]1(O)C(=O)CO [DEXAMETHASONE]
- Cholesterol Index (fold reduction) (male Sprague-Dawley rats; dose 1, time point 3 days): 0.9 fold reduction
- SPS (livers of rats; dose 1 (mg/ml), time point 3 days): 49.5

SMILES: CC/C(=C(/CC)c1ccc(O)cc1)c1ccc(O)cc1 [DIETHYLSTILBESTROL, 3,4-bis-(4-hydroxyphenyl)-3-hexene]
- Cholesterol Index (fold reduction) (male Sprague-Dawley rats; dose 2.8, time point 3 days): 3.0 fold reduction
- Cholesterol Index (fold reduction) (male Sprague-Dawley rats; dose 2.8, time point 5 days): 3.4 fold reduction
- Chol index (fold reduction) (male Sprague-Dawley rats; dose 2.8, time 3 days): 3.10 fold reduction
- Chol index (fold reduction) (male Sprague-Dawley rats; dose 2.8, time 5 days): 3.56 fold reduction
- SPS (livers of rats; dose 2.8 (mg/ml), time point 1 day): 57.3
- SPS (livers of rats; dose 2.8 (mg/ml), time point 3 days): 71.2
- SPS (livers of rats; dose 2.8 (mg/ml), time point 5 days): 80.9
- SPS (livers of rats; dose 300 (mg/ml), time point 1 day): 59
- SPS (livers of rats; dose 300 (mg/ml), time point 3 days): 83.3
- SPS (livers of rats; dose 300 (mg/ml), time point 5 days): 91.1

SMILES: C[C@]12CC[C@@H]3c4ccc(O)cc4CC[C@H]3[C@@H]1C[C@@H](O)[C@@H]2O [ESTRIOL, (16α, 17β)-estra-1,3,5(10)-triene-3,16,17-triol]
- Cholesterol Index (fold reduction) (male Sprague-Dawley rats; dose 313, time point 3 days): 3.2 fold reduction
- Cholesterol Index (fold reduction) (male Sprague-Dawley rats; dose 313, time point 5 days): 20.9 fold reduction
- Chol index (fold reduction) (male Sprague-Dawley rats; dose 313, time 3 days): 3.30 fold reduction
- Chol index (fold reduction) (male Sprague-Dawley rats; dose 313, time 5 days): 20.28 fold reduction
- reduction in cholesterol (male Sprague-Dawley rats): 20 fold
- SPS (livers of rats; dose 313 (mg/ml), time point 1 day): 51.5
- SPS (livers of rats; dose 313 (mg/ml), time point 3 days): 65.1
- SPS (livers of rats; dose 313 (mg/ml), time point 5 days): 83.4

SMILES: OC(Cn1cncn1)(Cn1cncn1)c1ccc(F)cc1F [FLUCONAZOLE, α-(2,4-difluorophenyl)-α-(1H-1,2,4-triazol-1-ylmethyl)-1H-1,2,4-triazole-1-ethanol]
- Cholesterol Index (fold reduction) (male Sprague-Dawley rats; dose 394, time point 5 days): 3.7 fold reduction
- Chol index (fold reduction) (male Sprague-Dawley rats; dose 394, time 5 days): 3.94 fold reduction
- SPS (livers of rats; dose 394 (mg/ml), time point 5 days): 59.7

SMILES: C#C[C@]1(OC(C)=O)CC[C@H]2[C@@H]3CCC4=CC(=O)CC[C@@H]4[C@H]3CC[C@@]21C [NORETHINDRONE ACETATE]
- Cholesterol Index (fold reduction) (male Sprague-Dawley rats; dose 125, time point 3 days): 2.0 fold reduction
- Cholesterol Index (fold reduction) (male Sprague-Dawley rats; dose 125, time point 5 days): 4.0 fold reduction
- Chol index (fold reduction) (male Sprague-Dawley rats; dose 125, time 5 days): 4.07 fold reduction
- SPS (livers of rats; dose 125 (mg/ml), time point 1 day): 58.8
- SPS (livers of rats; dose 125 (mg/ml), time point 3 days): 81.6
- SPS (livers of rats; dose 125 (mg/ml), time point 5 days): 80.7

SMILES: C#C[C@]1(O)CC[C@H]2[C@@H]3CCC4=CC(=O)CC[C@@H]4[C@H]3CC[C@@]21C [NORETHINDRONE, (17α)-17-hydroxy-19-norpregn-4-en-20-yn-3-one]
- Cholesterol Index (fold reduction) (male Sprague-Dawley rats; dose 375, time point 3 days): 3.5 fold reduction
- Chol index (fold reduction) (male Sprague-Dawley rats; dose 375, time 3 days): 3.56 fold reduction
- Chol index (fold reduction) (male Sprague-Dawley rats; dose 375, time 5 days): 3.06 fold reduction
